According to PMC3353862:
≈ marks a conversion by molar mass, not a printed value.

Columns and labels:
E. coli tolC mutants = assay: Broth microdilution MIC testing; format: cell-based, Escherichia coli; settings: E. coli tolC mutants
S. pneumoniae = assay: Broth microdilution MIC testing; format: cell-based, Streptococcus pneumoniae; settings: S. pneumoniae
H. influenzae = assay: Broth microdilution MIC testing; format: cell-based, Haemophilus influenzae; settings: H. influenzae
M. catarrhalis = assay: Broth microdilution MIC testing; format: cell-based, Moraxella catarrhalis
E. faecalis = assay: Broth microdilution MIC testing; format: cell-based, Enterococcus faecalis; settings: E. faecalis
S. aureus = assay: Broth microdilution MIC testing; format: cell-based, Staphylococcus aureus; settings: S. aureus
[1] = test system: E. coli modified with PMBN; assay: Broth microdilution MIC testing; format: cell-based, Escherichia coli; settings: E. coli modified with PMBN
[2] = test system: bacterial protein synthesis (aminoacylation/translation system); assay: aminoacylation/translation (A/T) assay; format: biochemical; settings: A/T assay, Table 1; read-out: IC50

Compound	MIC E. coli tolC (E. coli tolC mutants)	MIC S. pneumo (S. pneumoniae)	MIC H. flu (H. influenzae)	MIC M. cat (M. catarrhalis)	MIC E. fae (E. faecalis)	MIC S. aureus (S. aureus)	MIC E. coli +PMBP [1]	IC50 [2]
Cc1cc2c(cc1CN1CCc3nc(-c4ccccn4)[nH]c(=O)c3C1)OCO2 [Compound 323207]	> 128 µg/mL	> 128 µg/mL	> 128 µg/mL	> 128 µg/mL	> 128 µg/mL	> 128 µg/mL	> 128 µg/mL	> 300 µM
CCOCc1cc(CN2CCc3nc(-c4ccccn4)[nH]c(=O)c3C2)ccc1OC [Compound 323208]	64 µg/mL (≈ 157 µM)	32 µg/mL (≈ 78.7 µM)	64 µg/mL (≈ 157 µM)	4 µg/mL (≈ 9.84 µM)	> 128 µg/mL	> 128 µg/mL	64 µg/mL (≈ 157 µM)	2.7 µM
COc1cc(C)c(CN2CCc3nc(-c4ccccn4)[nH]c(=O)c3C2)cc1OC [Compound 323209]	64 µg/mL (≈ 163 µM)	32 µg/mL (≈ 81.5 µM)	64 µg/mL (≈ 163 µM)	4 µg/mL (≈ 10.2 µM)	> 128 µg/mL	> 128 µg/mL	64 µg/mL (≈ 163 µM)	1.5 µM
O=C(COc1ccc(CN2CCc3nc(-c4ccccn4)[nH]c(=O)c3C2)cc1)N1CCCC1 [Compound 323210]	> 128 µg/mL	> 128 µg/mL	> 128 µg/mL	> 128 µg/mL	> 128 µg/mL	> 128 µg/mL	> 128 µg/mL	3.2 µM
O=C1CCCN1c1ccc(CN2CCc3nc(-c4ccccn4)[nH]c(=O)c3C2)cc1 [Compound 323211]	> 128 µg/mL	> 128 µg/mL	> 128 µg/mL	64 µg/mL (≈ 159 µM)	> 128 µg/mL	> 128 µg/mL	> 128 µg/mL	1.6 µM
Cn1c(=O)n(C)c2cc(CN3CCc4nc(-c5ccccn5)[nH]c(=O)c4C3)ccc21 [Compound 323213]	> 128 µg/mL	> 128 µg/mL	> 128 µg/mL	> 128 µg/mL	> 128 µg/mL	> 128 µg/mL	> 128 µg/mL	2.4 µM
COc1cc(CN2CCc3nc(-c4ccccn4)[nH]c(=O)c3C2)ccc1OCCO [Compound 323214]	> 128 µg/mL	> 128 µg/mL	> 128 µg/mL	> 128 µg/mL	> 128 µg/mL	> 128 µg/mL	> 128 µg/mL	> 300 µM
COc1cc(CN2CCc3nc(-c4ccccn4)[nH]c(=O)c3C2)ccc1O [Compound 323215]	> 128 µg/mL	> 128 µg/mL	64 µg/mL (≈ 176 µM)	128 µg/mL (≈ 351 µM)	> 128 µg/mL	> 128 µg/mL	> 128 µg/mL	2.1 µM
O=c1[nH]c(-c2ccccn2)nc2c1CN(Cc1ccc(Cl)cc1)CC2 [Compound 323216]	8 µg/mL (≈ 22.7 µM)	4 µg/mL (≈ 11.3 µM)	2 µg/mL (≈ 5.67 µM)	≤0.12 µg/mL	32 µg/mL (≈ 90.7 µM)	16 µg/mL (≈ 45.3 µM)	8 µg/mL (≈ 22.7 µM)	1.1 µM
COc1ccc(CN2CCc3nc(-c4ccccn4)[nH]c(=O)c3C2)cc1O [Compound 323217]	> 128 µg/mL	> 128 µg/mL	32 µg/mL (≈ 87.8 µM)	32 µg/mL (≈ 87.8 µM)	> 128 µg/mL	> 128 µg/mL	> 128 µg/mL	4.8 µM
O=c1[nH]c(-c2ccccn2)nc2c1CN(Cc1ccccc1Cl)CC2 [Compound 323219]	8 µg/mL (≈ 22.7 µM)	4 µg/mL (≈ 11.3 µM)	4 µg/mL (≈ 11.3 µM)	≤0.12 µg/mL	32 µg/mL (≈ 90.7 µM)	16 µg/mL (≈ 45.3 µM)	16 µg/mL (≈ 45.3 µM)	3 µM
O=c1[nH]c(-c2ccccn2)nc2c1CN(Cc1cccc(Cl)c1)CC2 [Compound 323220]	8 µg/mL (≈ 22.7 µM)	4 µg/mL (≈ 11.3 µM)	2 µg/mL (≈ 5.67 µM)	≤0.12 µg/mL	32 µg/mL (≈ 90.7 µM)	16 µg/mL (≈ 45.3 µM)	8 µg/mL (≈ 22.7 µM)	2.1 µM
CC(=O)Nc1ccc(CN2CCc3nc(-c4ccccn4)[nH]c(=O)c3C2)cc1 [Compound 323222]	> 128 µg/mL	> 128 µg/mL	> 128 µg/mL	> 128 µg/mL	> 128 µg/mL	> 128 µg/mL	> 128 µg/mL	> 300 µM
COc1cccc(CN2CCc3nc(-c4ccccn4)[nH]c(=O)c3C2)c1OC [Compound 323223]	128 µg/mL (≈ 338 µM)	32 µg/mL (≈ 84.6 µM)	32 µg/mL (≈ 84.6 µM)	4 µg/mL (≈ 10.6 µM)	> 128 µg/mL	> 128 µg/mL	64 µg/mL (≈ 169 µM)	14.7 µM
COc1cc(OC)c(OC)cc1CN1CCc2nc(-c3ccccn3)[nH]c(=O)c2C1 [Compound 323226]	> 128 µg/mL	> 128 µg/mL	> 128 µg/mL	64 µg/mL (≈ 157 µM)	> 128 µg/mL	> 128 µg/mL	> 128 µg/mL	8 µM
O=c1[nH]c(-c2ccccn2)nc2c1CN(Cc1cc(F)cc(F)c1)CC2 [Compound 323230]	16 µg/mL (≈ 45.2 µM)	8 µg/mL (≈ 22.6 µM)	8 µg/mL (≈ 22.6 µM)	0.5 µg/mL (≈ 1.41 µM)	32 µg/mL (≈ 90.3 µM)	32 µg/mL (≈ 90.3 µM)	16 µg/mL (≈ 45.2 µM)	2 µM
CN(CCO)c1ccc(CN2CCc3nc(-c4ccccn4)[nH]c(=O)c3C2)cc1 [Compound 323232]	128 µg/mL (≈ 327 µM)	> 128 µg/mL	> 128 µg/mL	8 µg/mL (≈ 20.4 µM)	> 128 µg/mL	> 128 µg/mL	> 128 µg/mL	3.2 µM
COc1cc2c(cc1CN1CCc3nc(-c4ccccn4)[nH]c(=O)c3C1)OCO2 [Compound 323233]	64 µg/mL (≈ 163 µM)	32 µg/mL (≈ 81.5 µM)	16 µg/mL (≈ 40.8 µM)	4 µg/mL (≈ 10.2 µM)	128 µg/mL (≈ 326 µM)	> 128 µg/mL	64 µg/mL (≈ 163 µM)	> 300 µM
COc1ccc(CN2CCc3nc(-c4ccccn4)[nH]c(=O)c3C2)cc1Cn1cccn1 [Compound 323234]	> 128 µg/mL	128 µg/mL (≈ 299 µM)	128 µg/mL (≈ 299 µM)	16 µg/mL (≈ 37.3 µM)	128 µg/mL (≈ 299 µM)	> 128 µg/mL	64 µg/mL (≈ 149 µM)	5.8 µM
COc1ccc(CN2CCc3nc(-c4ccccn4)[nH]c(=O)c3C2)c(OC)c1O [Compound 323236]	> 128 µg/mL	> 128 µg/mL	> 128 µg/mL	> 128 µg/mL	> 128 µg/mL	> 128 µg/mL	> 128 µg/mL	7.8 µM
